Results from ChEMBL document CHEMBL1126004, “Synthesis and resolution of 7-fluorotryptophans” (Bioorg Med Chem Lett, 1991).

Assay: Compound was evaluated for relative ratio (Kcat/Km) between catalyst constant (Kcat) and Michaelis-Menten constant (Km) in a reaction with tryptophan indole-lyase (tryptophanase) from Escherichia coli

| Compound | k cat/Km [%] |
| --- | --- |
| N[C@@H](Cc1c[nH]c2c(F)cc(F)cc12)C(=O)O | 30 |
| N[C@@H](Cc1c[nH]c2c(F)ccc(F)c12)C(=O)O | 6 |
| N[C@@H](Cc1c[nH]c2c(F)cccc12)C(=O)O | 14 |
| N[C@@H](Cc1c[nH]c2ccccc12)C(=O)O | 100 |
